Each structure is given as a SMILES string.

The record followed here is patent US12012402B2, “Pyrido[2,3-d]pyrimidin-7-ones and related compounds as inhibitors of protein kinases” (UNIVERSITY OF HOUSTON SYSTEM, priority 2017, dated 2024).

The target of experiment [1] is Recombinant RIPK2 protein (Homo sapiens, UniProt O43353). Briefly: Receptor Interacting Protein Kinase 2 (RIPK2) enzyme assay (ADP-Glo). The conditions noted are these: 2 h at room temperature. In kind it is biochemical. The source says: Receptor Interacting Protein Kinase 2 (RIPK2) Enzyme Assay
Inhibition, %=(1−(test signal/maximal signal))*100.
For orientation: ADP-Glo turns the ADP formed in a reaction into a luminescent signal.

For experiment [2], the target named is T1, human ALK2 (Homo sapiens, UniProt Q04771).
T1 sequence (Q04771 21-509): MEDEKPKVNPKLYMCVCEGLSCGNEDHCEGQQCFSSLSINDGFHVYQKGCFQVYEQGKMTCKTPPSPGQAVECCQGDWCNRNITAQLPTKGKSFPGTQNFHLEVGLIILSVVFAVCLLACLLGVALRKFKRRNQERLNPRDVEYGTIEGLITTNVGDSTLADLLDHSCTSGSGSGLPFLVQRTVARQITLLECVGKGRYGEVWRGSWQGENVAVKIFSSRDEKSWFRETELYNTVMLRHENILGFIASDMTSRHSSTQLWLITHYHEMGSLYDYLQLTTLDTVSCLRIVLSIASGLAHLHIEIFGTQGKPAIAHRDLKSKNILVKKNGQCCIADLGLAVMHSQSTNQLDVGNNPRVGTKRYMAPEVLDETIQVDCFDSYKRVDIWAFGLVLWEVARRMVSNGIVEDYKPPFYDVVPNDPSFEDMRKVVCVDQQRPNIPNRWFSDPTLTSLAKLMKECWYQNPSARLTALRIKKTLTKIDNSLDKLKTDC
Briefly: Activin-Like Kinase 2 (ALK2) enzyme assay (33P-casein). In kind it is biochemical. The conditions noted are these: casein 1 mg/mL, 30 min; NI = no inhibition observed. How it is done: Activin-Like Kinase 2 (ALK2) Enzyme Assay
Enzyme inhibitory activity was evaluated in a standard kinase enzyme assay by incubating human ALK2 with the protein substrate casein (1 mg/mL) and γ-^33ATP (10 µM) in the presence of various concentrations of test compounds (10 nM-100 μM). After 30 min the amount of ^33P-casein was determined.

In experiment [3] the test system is NOD2 cellular signaling. Briefly: NOD2 signaling assay in HEK-Blue cells (NFkB-SEAP reporter, L18-MDP stimulated). In kind it is cell-based. Particulars: HEK-Blue cells expressing human NOD2, L18-MDP stimulation, 8 h; NI = no inhibition observed; read-out: EC50 HEK Blue RIPK2. On the procedure: HEK-Blue cells expressing human NOD2 and NFkB-SAEP reporter (Invivogen) are seeded into 96 well clear plates at 7.5×10^3 cells per well in 100 μL of DMEM media supplemented with 10% FBS and 1% antibiotic-antimycotic mix. Cells are allowed to attach for 48 h in 5% CO2 tissue culture incubator at 37° C. On the morning of the experiment, media in the wells is replaced with 100 μL of HEK-Blue detection media (Invivogen). Cells are treated with the inhibitors, diluted in DMSO (0.5 μL per well) for 15 min in 5% CO2 tissue culture incubator at 37° C. After that, cells are stimulated by the addition of 1 ng/well L18-MDP (Invivogen). Cells are incubated in 5% CO2 tissue culture incubator at 37° C. for 8 h and absorbance, corresponding to the SEAP in the media, is determined in Wallac3V plate reader (Perkin Elmer). Inhibition, %=(1−((sample signal-unstimulated and DMSO treated cells)/(L18-MDP stimulated and DMSO treated cells—unstimulated and DMSO treated cells)))*100.

Chain of Recombinant RIPK2 protein (O43353 whole entry): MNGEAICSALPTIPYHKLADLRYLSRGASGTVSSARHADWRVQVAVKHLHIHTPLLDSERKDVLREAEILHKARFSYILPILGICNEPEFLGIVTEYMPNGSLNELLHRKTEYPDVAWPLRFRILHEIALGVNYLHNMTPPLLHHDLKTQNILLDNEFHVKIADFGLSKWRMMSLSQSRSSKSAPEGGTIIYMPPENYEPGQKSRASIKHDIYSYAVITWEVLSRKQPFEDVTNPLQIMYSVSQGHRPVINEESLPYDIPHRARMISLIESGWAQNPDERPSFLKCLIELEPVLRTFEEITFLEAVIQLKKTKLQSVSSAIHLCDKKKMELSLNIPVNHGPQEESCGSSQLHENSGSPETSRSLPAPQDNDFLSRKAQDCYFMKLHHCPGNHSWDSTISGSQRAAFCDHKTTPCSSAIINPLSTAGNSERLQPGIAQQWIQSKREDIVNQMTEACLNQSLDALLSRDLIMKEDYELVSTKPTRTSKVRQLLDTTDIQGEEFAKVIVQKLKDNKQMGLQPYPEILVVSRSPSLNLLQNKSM

As a reminder, the IC50 is the midpoint of a concentration-inhibition curve. For orientation: EC50 means the concentration needed to bring the measured effect to its halfway point. For `CS(=O)(=O)c1cccc(Nc2ncc3cc(-c4ccccc4Cl)ccc3n2)c1` [UH15PN2, 6-(2-chlorophenyl)-N-(3-(methylsulfonyl)phenyl)quinazolin-2-amine], the IC50 in experiment [1] is 30.2 nM; in experiment [2], > 100000 nM. Moreover, the 50% effective concentration (EC50) in experiment [3] is 353 nM.

As to `Cn1c(=O)c(-c2ccccc2Cl)cc2cnc(Nc3cccc(N4CCNCC4)c3)nc21` [UH15_33, 6-(2-chlorophenyl)-8-methyl-2-((3-(piperazin-1-yl)phenyl)amino)pyrido[2,3-d]pyrimidin-7(8H)-one], the results for the IC50 in experiment [1] and in experiment [2] were 21.6 nM and 226 nM, respectively. The EC50 in experiment [3] came out at 0.2 nM.

On to `CS(=O)(=O)c1cccc(Nc2ncc3cc(-c4ccccn4)ccc3n2)c1` [UH15PN5, N-(3-(methylsulfonyl)phenyl)-6-(pyridin-2-yl)quinazolin-2-amine], for which the IC50 in experiment [1] was 41.5 nM. The EC50 in experiment [3] came to 1960 nM.

Consider `Cn1c(=O)c(-c2ccccc2Cl)cc2cnc(Nc3cccc(S(C)(=O)=O)c3)cc21` [UH15_32, 3-(2-chlorophenyl)-1-methyl-7-((3-(methylsulfonyl)phenyl)amino)-1,6-naphthyridin-2(1H)-one], for which the IC50 in experiment [1] is 27.3 nM; in experiment [2], > 100000 nM. The EC50 in experiment [3] is 406 nM.

Regarding `Cn1c(=O)c(-c2ccccc2Cl)cc2cnc(Nc3cccnc3)nc21` [UH15_34, 6-(2-chlorophenyl)-8-methyl-2-(pyridin-3-ylamino)pyrido[2,3-d]pyrimidin-7(8H)-one], the IC50 in experiment [1] is 35.2 nM; in experiment [2] it was 1100 nM. In addition, the EC50 in experiment [3] came to 34 nM.

As for `CS(=O)(=O)c1cccc(Nc2ncc3cc(-c4ccc(O)cc4)ccc3n2)c1` [UH15PN3, 4-(2-((3-(methylsulfonyl)phenyl)amino)quinazolin-6-yl)phenol], the IC50 came to 29.6 nM in experiment [1] and 8420 nM in experiment [2].

Take `Cn1c(=O)c(-c2ccccc2Cl)cc2cnc(Nc3ccccn3)nc21` [UH15_35, 6-(2-chlorophenyl)-8-methyl-2-(pyridin-2-ylamino)pyrido[2,3-d]pyrimidin-7(8H)-one]: the IC50 in experiment [1] was found to be 87.4 nM. The EC50 in experiment [3] came to 949 nM.

For the compound `Cn1c(=O)c(-c2ccccc2Cl)cc2cnc(Nc3cccc(N4CCNCC4)c3)cc21` [UH15_25, 3-(2-chlorophenyl)-1-methyl-7-((3-(piperazin-1-yl)phenyl)amino)-1,6-naphthyridin-2(1H)-one], the EC50 in experiment [3] stood at 55 nM.

As for `CS(=O)(=O)c1cccc(Nc2ncc3cc(-c4cccnc4)ccc3n2)c1` [UH15PN6, N-(3-(methylsulfonyl)phenyl)-6-(pyridin-3-yl)quinazolin-2-amine], the IC50 in experiment [1] is 25 nM. Further, the EC50 in experiment [3] stood at 450 nM.

On to `CCN(CC)CCOc1ccc(Nc2ncc3cc(-c4ccccc4Cl)ccc3n2)cc1` [UH15PN1, 6-(2-chlorophenyl)-N-(4-(2-(diethylamino)ethoxy)phenyl)quinazolin-2-amine], for which the values for the IC50 in experiment [1] and in experiment [2] were 22.1 nM and 326 nM, respectively. The EC50 in experiment [3] amounted to 168 nM.
